The target in assay [1] is T1, BlMan5_8 (Bifidobacterium animalis, UniProt B8DWU0).
T1 construct: gene BLA_0648; mature enzyme without signal peptide (residues 1-29 removed), GH5_8 + C-terminal CBM10; N-terminal His6 tag cleaved by thrombin; E. coli BL21(DE3)
Kind of assay: surface plasmon resonance, steady state, enzyme immobilised by amine coupling. The following applies: 10 mM MES, 150 mM NaCl, 0.005% P20, pH 6.0, 25 °C, one-site fit. Format: binding. The source says: surface plasmon resonance, steady state, enzyme immobilised by amine coupling on BlMan5_8
On the technique in general: In SPR one partner is held on a chip, and binding of the other changes the refractive index at the surface.

In assay [2] the target is T2, BlMan5_8-ΔCBM10 (Bifidobacterium animalis, UniProt B8DWU0).
T2 construct: gene BLA_0648; catalytic GH5_8 module, C-terminal CBM10 deleted by stop codon at Ser338 in linker; signal peptide (1-29) removed; N-terminal His6 tag cleaved by thrombin; E. coli BL21(DE3)
Described as above. Type of assay: binding. To be noted: 10 mM MES, 150 mM NaCl, 0.005% P20, pH 6.0, 25 °C; one-site fit; catalytic module. The source says:
surface plasmon resonance, steady state, enzyme immobilised by amine coupling on BlMan5_8-ΔCBM10

The mark [3] stands for this setting: catalytic module and CBM10 both bind.

Broadly, the Kd is the constant that tells how readily two partners part at equilibrium. Lower therefore signals higher affinity.

T1 sequence (B8DWU0 entry or part of it): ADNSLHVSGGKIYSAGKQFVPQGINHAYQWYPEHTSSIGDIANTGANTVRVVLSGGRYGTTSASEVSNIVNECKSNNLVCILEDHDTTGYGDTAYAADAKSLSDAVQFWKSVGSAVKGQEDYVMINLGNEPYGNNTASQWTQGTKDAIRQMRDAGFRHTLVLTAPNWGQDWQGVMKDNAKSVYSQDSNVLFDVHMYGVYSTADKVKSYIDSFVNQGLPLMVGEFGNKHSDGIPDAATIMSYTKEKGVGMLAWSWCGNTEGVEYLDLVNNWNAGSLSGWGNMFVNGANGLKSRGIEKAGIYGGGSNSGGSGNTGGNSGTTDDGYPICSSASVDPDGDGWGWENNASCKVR
T2 sequence (B8DWU0 entry or part of it, stated change not applied): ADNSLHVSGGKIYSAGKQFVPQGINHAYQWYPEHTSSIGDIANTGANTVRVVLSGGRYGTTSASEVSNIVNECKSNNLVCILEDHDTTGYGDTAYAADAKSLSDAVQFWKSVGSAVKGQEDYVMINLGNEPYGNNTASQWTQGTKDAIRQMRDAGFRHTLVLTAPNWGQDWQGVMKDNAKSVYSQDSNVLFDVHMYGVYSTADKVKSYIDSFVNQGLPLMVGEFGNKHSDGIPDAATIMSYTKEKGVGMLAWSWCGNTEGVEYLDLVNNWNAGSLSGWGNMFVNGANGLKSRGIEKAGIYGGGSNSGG

For the compound `OC[C@H]1O[C@@H](O[C@H]2[C@H](O)[C@H](O)[C@H](O[C@H]3[C@H](O)[C@H](O)[C@H](O[C@H]4[C@H](O)[C@H](O)C(O)O[C@@H]4CO)O[C@@H]3CO)O[C@@H]2CO)[C@@H](O)[C@@H](O)[C@@H]1O` (some centres unmarked) [M4, mannotetraose], binding in assay [1] (CBM10 site suggested) was put at a Kd of 5100 ± 800 µM. With `OC[C@H]1O[C@@H](O[C@H]2[C@H](O)[C@H](O)[C@H](O[C@H]3[C@H](O)[C@H](O)[C@H](O[C@H]4[C@H](O)[C@H](O)[C@H](O[C@H]5[C@H](O)[C@H](O)[C@H](O[C@H]6[C@H](O)[C@H](O)C(O)O[C@@H]6CO)O[C@@H]5CO)O[C@@H]4CO)O[C@@H]3CO)O[C@@H]2CO)[C@@H](O)[C@@H](O)[C@@H]1O` (some centres unmarked) [M6, mannohexaose], the Kd in assay [2] is 240 ± 420 µM; in assay [1] (setting [3]), 580 ± 50 µM.

For the compound `OC[C@H]1O[C@@H](O[C@H]2[C@H](O)[C@H](O)[C@H](O[C@H]3[C@H](O)[C@H](O)[C@H](O[C@H]4[C@H](O)[C@H](O)[C@H](O[C@H]5[C@H](O)[C@H](O)C(O)O[C@@H]5CO)O[C@@H]4CO)O[C@@H]3CO)O[C@@H]2CO)[C@@H](O)[C@@H](O)[C@@H]1O` (some centres unmarked) [M5, mannopentaose], the Kd was found to be 1500 ± 300 µM in assay [2] and 3700 ± 300 µM in assay [1] (setting [3]).

The values above are taken from PMC4642672, “The GH5 1,4-β-mannanase from Bifidobacterium animalis subsp. lactis Bl-04 possesses a low-affinity mannan-binding module and highlights the diversity of mannanolytic enzymes” (BMC Biochemistry, 2015).
